Experimental data as given in PMC10005301, “Prediction of the n-Octanol/Water Partition Coefficients of Basic Compounds Using Multi-Parameter QSRR Models Based on IS-RPLC Retention Behavior in a Wide pH Range” (Molecules, 2023).
Where two headings read alike, the source gives them in different places.

How the values were obtained:
[1] = IS-RPLC retention on silica-based C18 column, logkw by linear solvent strength model; format: physicochemical
Protocol: (§1) The retention behavior of the 42 basic compounds (Table 1) were investigated at different ratios of methanol (φ = 0.7–0.1, the interval was 0.1 or 0.05 based on the retention of the investigated solutes). The logk values were plotted versus φ for each solute at pH 7.0, pH 8.0, pH 9.0, and pH 10.0. […] The logD values of the model compounds and verification compounds calculated using Equation (S3) based on the logP and pH values are also listed in Table 1.
The column temperature was set at 30 °C. Methanol and 20 mmol/L ammonium phosphate buffer (pH = 7.0, 8.0, 9.0, 10.0) was used as the mobile phase to perform isocratic elution. The injection volume was 10 µL and the detection wavelength for each eluted compound was set at its optimum absorption wavelength.
(§2) At each pH, the retention time (tR) of every analyte was determined for at least four different volume fractions (φ) of methanol. All the tR values of the solutes were obtained by averaging the results of at least three independent injections. The tR value was corrected using dual-point retention time correction (DP-RTC). For a detailed description of the process, refer to our previous work. For the different hydrophobicities of the studied compounds, benzene, toluene, and benzyl alcohol were used as anchor compounds in the DP-RTC method. The dead time t0 was determined using uracil. For each solute, the logarithm of k was plotted against φ, and logkw was obtained using the Equation (S1). The logD values of the model compounds were calculated using Equation (S3), and the logD–logkw models were established with Equation (S4). The statistical analysis for the regression model was accomplished using Origin 9.4. […]
(§3) Where, k is the capacity factor, φ is the volume fraction of organic modifier in the mobile phase, and S is the constant obtained by linear regression in the equations. […]
The Eqs. (S1) and (S2) are the basis for the determination of logP by revered- phase liquid chromatography (RPLC) method. For dissociative solutes, it has been confirmed by many studies that the logD calibrated from logP has a better linear correlation with logkw than logP. […]

[2] = logD determined by multi-parameter QSRR models from IS-RPLC logkw
Protocol: Multi-parameter QSRR models including logD, logkw, ne, A, and B were established using the multiple linear regression (MLR) method. In the process of linear fitting, ne, A, B, and their different combinations were introduced to optimize the models.
The logD values reported in the literature for these four compounds were calculated using Equation (S3) with corresponding pKa, logP, and pH values.
At each pH, the retention time (tR) of every analyte was determined for at least four different volume fractions (φ) of methanol. All the tR values of the solutes were obtained by averaging the results of at least three independent injections. The tR value was corrected using dual-point retention time correction (DP-RTC). For a detailed description of the process, refer to our previous work. For the different hydrophobicities of the studied compounds, benzene, toluene, and benzyl alcohol were used as anchor compounds in the DP-RTC method. The dead time t0 was determined using uracil. For each solute, the logarithm of k was plotted against φ, and logkw was obtained using the Equation (S1). The logD values of the model compounds were calculated using Equation (S3), and the logD–logkw models were established with Equation (S4). The statistical analysis for the regression model was accomplished using Origin 9.4.

[3] = design: method as in UFZ-LSER database; settings: hydrogen bonding parameter B; ref UFZ-LSER database; cited from earlier work
[4] = Description: as §1, §2, §3
and logkw, which is usually called Collander equation [25 ]. lo g lo g wPm k n= + (S2)
Where, m and n are constants obtained by linear regression.
The Eqs. (S1) and (S2) are the basis for the determination of logP by revered- phase liquid chromatography (RPLC) method. For dissociative solutes, it has been confirmed by many studies that the logD calibrated from logP has a better linear correlation with logkw than logP.
For basic compounds, the logD value can be calibrated from Eq. (S3), and the Collander equation can be rewritten into Eq. (S4). log log( )D − −+ −+= + ++P […]
lo g ' lo g 'Dm k n= +w (S4)
Where, pKa1, pKa2 , … p Kan are the dissociation constants of basic compounds of corresponding acids in the mobile phase, pH is the pH value of mobile phase, m′ and n′ are fitting parameters. Han et al. pointed out that although mobile phase pH and pKa of solutes will change along with the varied organic modifier fraction, the difference between a couple of relevant pH and pKa is a constant. Therefore, the used pH and pKa in this paper were both the values obtained at 100% aqueous phase. […]

[5] = pH 7.0, methanol/20 mmol/L ammonium phosphate buffer, Welch Xtimate C18, 30 °C, 100% aqueous extrapolation
[6] = pH 8.0, methanol/20 mmol/L ammonium phosphate buffer, Welch Xtimate C18, 30 °C, 100% aqueous extrapolation
[7] = pH 9.0, methanol/20 mmol/L ammonium phosphate buffer, Welch Xtimate C18, 30 °C, 100% aqueous extrapolation
[8] = pH 10.0, methanol/20 mmol/L ammonium phosphate buffer, Welch Xtimate C18, 30 °C, 100% aqueous extrapolation
[9] = IS-RPLC retention (logkw), pH 7
[10] = IS-RPLC retention (logkw), pH 8
[11] = IS-RPLC retention (logkw), pH 9
[12] = IS-RPLC retention (logkw), pH 10
[13] = pH 7.0, calculated with literature logP, pKa and pH, Equation (S3)
[14] = pH 8.0, calculated with literature logP, pKa and pH, Equation (S3)
[15] = pH 9.0, calculated with literature logP, pKa and pH, Equation (S3)
[16] = pH 10.0, calculated with literature logP, pKa and pH, Equation (S3)

| Compound | logkw-pH 7.0 [1, 5] | logkw-pH 8.0 [1, 6] | logkw-pH 9.0 [1, 7] | logkw-pH 10.0 [1, 8] | chromatographic logD [2, 9] | chromatographic logD [2, 10] | chromatographic logD [2, 11] | chromatographic logD [2, 12] | B [3] | chromatographic logD ([2]; pH 7) | chromatographic logD ([2]; pH 8) | chromatographic logD ([2]; pH 9) | chromatographic logD ([2]; pH 10) | further results |
| --- | --- | --- | --- | --- | --- | --- | --- | --- | --- | --- | --- | --- | --- | --- |
| O=C(O)c1cc(O)nc(O)c1 [Citrazinic acid] | 1.18 | 1.18 | 1.20 | 1.30 | 2.29 | 2.05 | 1.2 | 1.87 | 1.23 |  |  |  |  |  |
| Nc1ccc([N+](=O)[O-])cc1Cl [2-Chloro-4-nitroaniline] |  |  |  |  |  |  |  |  | 1.41 | 1.99 | 1.96 | 1.93 | 1.92 | logkw-pH 7.0 ([1]; pH 7): 2.07; logkw-pH 8.0 ([1]; pH 8): 2.13; logkw-pH 9.0 ([1]; pH 9): 2.14; logkw-pH 10.0 ([1]; pH 10): 2.18 |
| Nc1c(Cl)cc([N+](=O)[O-])cc1[N+](=O)[O-] [2-Chloro-4,6-dinitroaniline] | 2.19 | 2.25 | 2.26 | 2.30 |  |  |  |  | 1.56 | 2.11 | 2.07 | 1.99 | 1.97 |  |
| Nc1ccccc1N [1,2-diaminobenzene] |  |  |  |  |  |  |  |  | 1.26 | 0.38 | 0.38 | 0.07 | 0.28 | logkw-pH 7.0 ([1]; pH 7): 0.50; logkw-pH 8.0 ([1]; pH 8): 0.49; logkw-pH 9.0 ([1]; pH 9): 0.29; logkw-pH 10.0 ([1]; pH 10): 0.60 |
| Cc1cc([N+](=O)[O-])ccc1N [2-Methyl-4-nitroaniline] | 1.76 | 1.79 | 1.46 | 1.84 |  |  |  |  | 1.22 | 1.67 | 1.63 | 1.31 | 1.6 |  |
| Nc1cccc(S(=O)(=O)c2cccc(N)c2)c1 [3,3’-Sulfonyldianiline] | 1.78 | 1.83 | 1.83 | 1.47 | 1.7 | 1.67 | 1.2 | 0.69 | 1.82 |  |  |  |  |  |
| Nc1cccc(N)c1 [1,3-diaminobenzene] | 0.17 | 0.07 | −0.16 | 0.21 |  |  |  |  | 1.28 | 0.03 | -0.02 | -0.41 | -0.15 |  |
| Nc1ccc(F)cc1 [4-Fluoroaniline] | 1.13 | 1.12 | 1.14 | 1.18 |  |  |  |  | 1.76 |  |  |  |  | logDpH 7.0 [4, 13]: 1.15; logDpH 8.0 [4, 14]: 1.15; logDpH 9.0 [4, 15]: 1.15; logDpH 10.0 [4, 16]: 1.15 |
| O=C(n1ccnc1)n1ccnc1 [1,1’-Carbonyldiimidazole] | −0.39 | −0.38 | −0.27 | −0.15 | -0.52 | -0.46 | -0.84 | -0.89 | 1.47 |  |  |  |  |  |
| c1c[nH]cn1 [Imidazole] | −0.53 | −0.39 | −0.34 | −0.16 |  |  |  |  | 0.71 |  |  |  |  |  |
| Nc1ccc([N+](=O)[O-])cc1[N+](=O)[O-] [2,4-Dinitroaniline] | 1.80 | 1.86 | 1.78 | 1.92 |  |  |  |  | 1.44 | 1.71 | 1.69 | 1.58 | 1.64 |  |
| Nc1ccc(I)cc1 [4-Iodoaniline] | 2.22 | 2.28 | 2.29 | 2.28 | 2.14 | 2.1 | 2.13 | 2.08 | 1.53 |  |  |  |  |  |
| CCC(C(N)=O)N1CCCC1=O (stereo not drawn) [Etiracetam] | 0.80 | 0.66 | 0.82 | 0.88 | 0.7 | 0.54 | 0.17 | 0.04 | 1.03 |  |  |  |  |  |
| Nc1ccccc1 [Aniline] | 0.96 | 0.95 | 0.97 | 1.02 |  |  |  |  | 1.86 |  |  |  |  | logDpH 7.0 ([4]; pH 7): 0.90; logDpH 8.0 ([4]; pH 8): 0.90; logDpH 9.0 [4, 15]: 0.90; logDpH 10.0 ([4]; pH 10): 0.90 |
| Cc1c[nH]cn1 [4-Methylimidazole] |  |  |  |  | -0.54 | 0.06 | 0.08 | 0.07 | 0.64 |  |  |  |  | logkw-pH 7.0 ([1]; pH 7): −0.08; logkw-pH 8.0 ([1]; pH 8): 0.19; logkw-pH 9.0 ([1]; pH 9): 0.32; logkw-pH 10.0 ([1]; pH 10): 0.39 |
| COc1nc(C)nc(N)n1 [2-Amino-4-methyl-6-methoxy-s-triazine] | 1.36 | 1.36 | 1.38 | 1.43 | 1.28 | 1.22 | 0.94 | 0.86 | 1.07 |  |  |  |  |  |
| Nc1ncncn1 [2-Amino-1,3,5-triazine] | 1.36 | 1.36 | 1.38 | 1.43 | 1.27 | 1.22 | 0.95 | 0.88 | 1.00 |  |  |  |  |  |
| c1ccncc1 [Pyridine] |  |  |  |  |  |  |  |  |  |  |  |  |  | logkw-pH 7.0 ([1]; pH 7): 0.70; logkw-pH 8.0 ([1]; pH 8): 0.92; logkw-pH 9.0 ([1]; pH 9): 1.01; logkw-pH 10.0 ([1]; pH 10): 1.05 |
| Cc1ccccn1 [2-Picoline] | 1.31 | 1.32 | 1.34 | 1.36 |  |  |  |  | 0.60 |  |  |  |  | logDpH 7.0 ([4]; pH 7): 1.05; logDpH 8.0 ([4]; pH 8): 1.09; logDpH 9.0 ([4]; pH 9): 1.09; logDpH 10.0 ([4]; pH 10): 1.09 |
| CN(C)Cc1ccccc1 [N, N-Dimethylbenzylamine] | 0.97 | 1.61 | 2.13 | 2.44 |  |  |  |  | 0.67 |  |  |  |  | logDpH 7.0 [4, 13]: 0.17; logDpH 8.0 [4, 14]: 1.12; logDpH 9.0 [4, 15]: 1.77; logDpH 10.0 [4, 16]: 1.95 |
